# Measurements: patent US20040029254A1, “Method of screening anti-bacterial agents for effectiveness in treating persistant intracellular infections” (University of Washington, priority 2002, published 2004)
# Where “and” joins values, the source holds several entries; their conditions need not be identical. Equal entries are not always repeated. Where two headings read alike, the source gives them in different places.
# How the values were obtained:
# Type in all cases: cell-based
# [1] = tested on: Chlamydia trachomatis serovar D; assay: microbe, parasite or virus in culture
# [2] = tested on: C. trachomatis serovar D strain; assay: Comparison of MIC, MCC, MCC3 and MCC3/MIC ratio in McCoy cells; settings: for MIC: Chlamydia trachomatis
# [3] = tested on: C. pneumoniae TW-183, CWL-029; assay: Anti-bacterial susceptibilities of reference strains; settings: for MIC: Chlamydia pneumoniae, HEp-2 cells, read-out: MIC (microtiter)
# [4] = tested on: Chlamydia trachomatis clinical isolates; assay: Anti-bacterial susceptibilities of clinical isolates; settings: for MIC: Chlamydia trachomatis, read-out: MIC (microtiter)
# [5] = tested on: C. trachomatis B,D,E,F,G,H,I,Ia,J,K (human genital serovars); assay: Anti-bacterial susceptibilities of reference strains; settings: Chlamydia trachomatis; McCoy cells; read-out: MIC (microtiter)
# [6] = tested on: C. trachomatis L2 (LGV serovar); assay: as above; settings: Chlamydia trachomatis; McCoy cells; read-out: MIC (microtiter)
# [7] = tested on: C. trachomatis MoPn (mouse pneumonitis strain); assay: as above; settings: Chlamydia trachomatis; McCoy cells; read-out: MIC (microtiter)
# C. psittaci 6BC, GPIC = assay: microbe, parasite or virus in culture; settings: Chlamydia psittaci, read-out: MIC (microtiter)
# [8] = tested on: clinical isolates of C. trachomatis; assay: microbe, parasite or virus in culture
# [9] = tested on: C. trachomatis serovar D (strain UW-3); assay: Effect of inoculum size on doxycycline MIC, MCC and MCC3
# [10] = CDC strains sensitive controls (n = 2), McCoy cells
# [11] = CDC strains treatment failures (n = 2), McCoy cells
# [12] = Recurrent same serovar isolates (n = 6), McCoy cells
# [13] = Single isolates (n = 30), McCoy cells
# [14] = Treatment failure isolates (n = 6), McCoy cells
# [15] = CDC strains treatment failures (n = 2), multi-drug resistant at CDC, McCoy cells
# [16] = inoculum 0.3125 × 10^3 IFU/well
structure (smiles),measurement,setting,value
"CN(C)[C@@H]1C(O)=C(C(N)=O)C(=O)[C@@]2(O)C(O)=C3C(=O)c4c(O)cccc4[C@@](C)(O)[C@H]3C[C@@H]12 [Tetracycline, tetracycline]",MIC,[1]; Chlamydia trachomatis,0.25 µg/mL
same,MCC,[2],16 µg/mL
same,MCC3,[2],128 µg/mL
same,MCC3/MIC,[2],128
same,MIC,[2],0.25 µg/mL
"CC[C@H]1OC(=O)[C@H](C)[C@@H](O[C@H]2C[C@@](C)(OC)[C@@H](O)[C@H](C)O2)[C@H](C)[C@@H](O[C@@H]2O[C@H](C)C[C@H](N(C)C)[C@H]2O)[C@](C)(O)C[C@@H](C)CN(C)[C@H](C)[C@@H](O)[C@]1(C)O [Azithromycin, azithromycin]",MCC1 (shell vial),[3],4 to 8 µg/mL
same,MCC3 (shell vial),[3],64 µg/mL
same,MCC (microtiter),[3],0.25 µg/mL
same,MCC3 (shell vial),[4]; [10],64 µg/mL
same,MCC (microtiter),[4]; [10],0.25 to 0.5 µg/mL
same,MCC (shell vial),[4]; [10],>8 µg/mL
same,MCC3 (shell vial),[4]; [11],64 µg/mL
same,MCC (microtiter),[4]; [11],0.25 to 0.5 µg/mL
same,MCC (shell vial),[4]; [11],>8 µg/mL
same,MCC3 (shell vial),[4]; [12],64 µg/mL
same,MCC (microtiter),[4]; [12],0.25 to 0.5 µg/mL
same,MCC (shell vial),[4]; [12],>8 µg/mL
same,MCC3 (shell vial),[4]; [13],64 µg/mL
same,MCC (microtiter),[4]; [13],0.25 to 0.5 µg/mL
same,MCC (shell vial),[4]; [13],>8 µg/mL
same,MCC3 (shell vial),[4]; [14],64 µg/mL
same,MCC (microtiter),[4]; [14],0.25 to 0.5 µg/mL
same,MCC (shell vial),[4]; [14],>8 µg/mL
same,MCC,[2]; McCoy cells,8 µg/mL
same,MCC3,[2]; McCoy cells,64 µg/mL
"CC1COc2c(N3CCN(C)CC3)c(F)cc3c(=O)c(C(=O)O)cn1c23 (stereo not drawn) [Ofloxacin, ofloxacin]",MCC,[1],>8 µg/mL and 4 µg/mL and 8 µg/mL
same,MIC,[5],0.5 µg/mL
same,MIC,[6],0.5 µg/mL
same,MIC,[7],0.5 µg/mL
same,MCC1 (shell vial),[3],>8 µg/mL
same,MCC3 (shell vial),[3],>128 µg/mL
same,MCC (microtiter),[3],1.0 µg/mL
same,MIC,[3],0.5 µg/mL
same,MIC,"C. psittaci 6BC, GPIC",0.5 µg/mL
same,MCC3 (shell vial),[4]; [10],>128 µg/mL
same,MCC (microtiter),[4]; [10],1 to 2 µg/mL
same,MCC (shell vial),[4]; [10],>8 µg/mL
same,MIC (microtiter),[4]; [10],0.5 to 1.0 µg/mL
same,MIC (microtiter),[4]; [15],0.5 to 1.0 µg/mL
same,MCC3 (shell vial),[4]; [11],>128 µg/mL
same,MCC (microtiter),[4]; [11],1 to 2 µg/mL
same,MCC (shell vial),[4]; [11],>8 µg/mL
same,MIC,[4]; [12],0.5 to 1 µg/mL
same,MCC3 (shell vial),[4]; [12],>128 µg/mL
same,MCC (microtiter),[4]; [12],1 to 2 µg/mL
same,MCC (shell vial),[4]; [12],>8 µg/mL
same,MCC3 (shell vial),[4]; [13],>128 µg/mL
same,MCC (microtiter),[4]; [13],1 to 2 µg/mL
same,MCC (shell vial),[4]; [13],>8 µg/mL
same,MIC (microtiter),[4]; [13],0.5 to 1.0 µg/mL
same,MCC3 (shell vial),[4]; [14],>128 µg/mL
same,MCC (microtiter),[4]; [14],1 to 2 µg/mL
same,MCC (shell vial),[4]; [14],>8 µg/mL
same,MIC (microtiter),[4]; [14],0.5 to 1.0 µg/mL
same,MCC3,[2],128 µg/mL
same,MCC3/MIC,[2],128
same,MIC,"[2]; McCoy cells, read-out: MIC",1 µg/mL
same,MCC,[2]; McCoy cells,16 µg/mL
same,MCC3/MIC,[8],128
same,MIC,[8]; Chlamydia trachomatis,1000 to 2000 ng/mL
"CO[C@H]1/C=C/O[C@@]2(C)Oc3c(C)c(O)c4c(O)c(c(/C=N/N5CCN(C)CC5)c(O)c4c3C2=O)NC(=O)/C(C)=C\C=C\[C@H](C)[C@H](O)[C@@H](C)[C@@H](O)[C@@H](C)[C@H](OC(C)=O)[C@@H]1C [Rifampin, rifampin]",MIC,"[2]; McCoy cells, read-out: MIC",0.016 µg/mL
same,MCC,[2]; McCoy cells,0.5 µg/mL
same,MCC3,[2]; McCoy cells,4 µg/mL
same,MCC3/MIC,[2]; McCoy cells,250
"C[C@H]1c2cccc(O)c2C(=O)C2=C(O)[C@]3(O)C(=O)C(C(N)=O)=C(O)[C@@H](N(C)C)[C@@H]3[C@@H](O)[C@@H]21 [Doxycycline, doxycycline]",MIC,"[9]; Chlamydia trachomatis, inoculum 80 × 10^3 IFU/well, read-out: MIC",0.064 µg/mL
same,MCC,[9]; [16],0.064 µg/mL
same,MCC3,[9]; [16],0.064 µg/mL
same,MIC,[9]; [16],0.064 µg/mL
same,MCC,[9]; inoculum 0.625 × 10^3 IFU/well,0.064 µg/mL
same,MCC3,[9]; inoculum 0.625 × 10^3 IFU/well,0.064 µg/mL
same,MIC,[9]; inoculum 0.625 × 10^3 IFU/well,0.064 µg/mL
same,MCC,[9]; inoculum 5 × 10^3 IFU/well,>8 µg/mL
same,MCC3,[9]; inoculum 5 × 10^3 IFU/well,64 µg/mL
same,MIC,[9]; inoculum 5 × 10^3 IFU/well,0.064 µg/mL
same,MCC,[9]; inoculum 10 × 10^3 IFU/well,>8 µg/mL
same,MCC3,[9]; inoculum 10 × 10^3 IFU/well,64 µg/mL
same,MIC,[9]; inoculum 10 × 10^3 IFU/well,0.064 µg/mL
same,MCC,[9]; inoculum 20 × 10^3 IFU/well,>8 µg/mL
same,MCC3,[9]; inoculum 20 × 10^3 IFU/well,64 µg/mL
same,MIC,[9]; inoculum 20 × 10^3 IFU/well,0.064 µg/mL
same,MCC,[9]; inoculum 40 × 10^3 IFU/well,>8 µg/mL
same,MCC3,[9]; inoculum 40 × 10^3 IFU/well,64 µg/mL
same,MIC,[9]; inoculum 40 × 10^3 IFU/well,0.064 µg/mL
same,MCC,[9]; inoculum 80 × 10^3 IFU/well,>8 µg/mL
same,MCC3,[9]; inoculum 80 × 10^3 IFU/well,64 µg/mL
same,MCC,[9]; inoculum 160 × 10^3 IFU/well,>8 µg/mL
same,MCC3,[9]; inoculum 160 × 10^3 IFU/well,64 µg/mL
same,MIC,[9]; inoculum 160 × 10^3 IFU/well,0.064 µg/mL
same,MCC,[9]; inoculum 320 × 10^3 IFU/well,>8 µg/mL
same,MCC3,[9]; inoculum 320 × 10^3 IFU/well,64 µg/mL
same,MIC,[9]; inoculum 320 × 10^3 IFU/well,0.064 µg/mL
same,MCC,[9]; inoculum […] 10^3 IFU/well,0.064 µg/mL
same,MCC3,[9]; inoculum […] 10^3 IFU/well,0.064 µg/mL
same,MIC,[9]; inoculum […] 10^3 IFU/well,0.064 µg/mL
same,MIC,[5],0.064 µg/mL
same,MIC,[6],0.064 µg/mL
same,MIC,[7],0.064 µg/mL
same,MCC1 (shell vial),[3],4 to 8 µg/mL
same,MCC3 (shell vial),[3],32 to 64 µg/mL
same,MCC (microtiter),[3],0.125 µg/mL
same,MIC,[3],0.064 µg/mL
same,MIC,"C. psittaci 6BC, GPIC",0.064 µg/mL
same,MCC3 (shell vial),[4]; [10],16 to 64 µg/mL
same,MCC (microtiter),[4]; [10],0.125 to 0.25 µg/mL
same,MCC (shell vial),[4]; [10],>8 µg/mL
same,MIC (microtiter),[4]; [10],0.064 to 0.125 µg/mL
same,MIC (microtiter),[4]; [15],0.064 to 0.125 µg/mL
same,MCC3 (shell vial),[4]; [11],16 to 64 µg/mL
same,MCC (microtiter),[4]; [11],0.125 to 0.25 µg/mL
same,MCC (shell vial),[4]; [11],>8 µg/mL
same,MIC,[4],0.064 to 0.125 µg/mL
same,MCC3 (shell vial),[4]; [12],16 to 64 µg/mL
same,MCC (microtiter),[4]; [12],0.125 to 0.25 µg/mL
same,MCC (shell vial),[4]; [12],>8 µg/mL
same,MCC3 (shell vial),[4]; [13],16 to 64 µg/mL
same,MCC (microtiter),[4]; [13],0.125 to 0.25 µg/mL
same,MCC (shell vial),[4]; [13],>8 µg/mL
same,MIC (microtiter),[4]; [13],0.064 to 0.125 µg/mL
same,MCC3 (shell vial),[4]; [14],16 to 64 µg/mL
same,MCC (microtiter),[4]; [14],0.125 to 0.25 µg/mL
same,MCC (shell vial),[4]; [14],>8 µg/mL
same,MIC (microtiter),[4]; [14],0.064 to 0.125 µg/mL
same,MCC3/MIC,[2],1000
same,MIC,"[2]; McCoy cells, read-out: MIC",0.064 µg/mL
same,MCC,[2]; McCoy cells,8 µg/mL
same,MCC3,[2]; McCoy cells,64 µg/mL
same,MCC3/MIC,[8],1000
same,MIC,[8]; Chlamydia trachomatis,64 to 125 ng/mL
"CO[C@H]1/C=C/O[C@@]2(C)Oc3c(C)c(O)c4c(=O)c(c5oc6cc(N7CCN(CC(C)C)CC7)cc(O)c6nc-5c4c3C2=O)NC(=O)/C(C)=C\C=C\[C@H](C)[C@H](O)[C@@H](C)[C@@H](O)[C@@H](C)[C@H](OC(C)=O)[C@@H]1C [Rifalazil, rifalazil]",MCC3/MIC,[2],16
same,MIC,"[2]; McCoy cells, read-out: MIC",0.00025 µg/mL
same,MCC,[2]; McCoy cells,0.002 µg/mL
same,MCC3,[2]; McCoy cells,0.004 µg/mL
same,anti-chlamydial activity in words,"[2]; McCoy cells, compared with other drugs",highly active
same,MCC3/MIC,[8],16
same,anti-chlamydial activity in words,[8],highly active
same,MIC,[8]; Chlamydia trachomatis,0.25 to 5 ng/mL
CCCN1CCN(c2cc(O)c3nc4c5c6c7c(C)c(O)c5c(=O)c(c-4oc3c2)NC(=O)/C(C)=C\C=C\[C@H](C)[C@H](O)[C@@H](C)[C@@H](O)[C@@H](C)[C@H](OC(C)=O)[C@H](C)[C@@H](OC)/C=C/O[C@@](C)(O7)C6=O)CC1 [KRM-1657],MCC3/MIC,[8],16
same,MIC,[8],0.064 to 0.125 ng/mL
same,anti-chlamydial activity in words,[8],highly active
"CC[C@H]1OC(=O)[C@H](C)[C@@H](O[C@H]2C[C@@](C)(OC)[C@@H](O)[C@H](C)O2)[C@H](C)[C@@H](O[C@@H]2O[C@H](C)C[C@H](N(C)C)[C@H]2O)[C@](C)(O)C[C@@H](C)C(=O)[C@H](C)[C@@H](O)[C@]1(C)O [Erythromycin, erythromycin]",MIC,"[2]; McCoy cells, read-out: MIC",0.5 µg/mL
same,MCC,[2]; McCoy cells,8 µg/mL
